“And” between values parts separate entries of the source, which are not always exact repeats. Identical values can stand only once. Like-named read-outs stand apart in the source and are kept apart here.
Columns and labels:
human GPR40 [1] = molecular target: T1, human GPR40 (Homo sapiens, UniProt O14842); test: Human GPR40 IP1 accumulation assay; format: cell-based; design: expressed in transfected cells
Summary of the method: (§1)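 IP1 accumulation is measured by HTRF after 60 min compound stimulation at room temperature in LiCl (50 mM)-containing buffer. Compounds run in ½-log dilutions from a final top concentration of 10 μM or 1 μM. Cells are hGPR40/HEK293, mGPR40/CHO-K1 and rGPR40/CHO-K1. Activity is scaled between DMSO and a partial allosteric agonist and fitted to a 4-parameter curve for EC50 and maximum.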

mouse GPR40 = molecular target: T2, mouse GPR40 (Mus musculus, UniProt Q76JU9); test: Mouse GPR40 IP1 accumulation assay; format: cell-based
T2 construct: expressed in transfected cells; host or cells: CHO-K1 (methods)
Summary of the method: as §1

human GPR40 [2] = molecular target: T1, human GPR40; test: GPR40 binding assay, partial agonist tracer [3H]L358; design: expressed in transfected cells; host or cells: CHO / CHO-K1 cells, membrane preparation;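 on %Bound: 100% is tracer binding with DMSO alone and 0% is full displacement by a standard compound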
Summary of the method: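 SPA binding on membranes from CHO cells stably expressing human GPR40 (5 μg/well, with WGA beads) in Tris/MgCl2/EDTA buffer at room temperature. Each compound was tested against tracer [3H]L358 (partial-agonist site) or [3H]25 (AgoPAM site), since it may displace or augment tracer binding. Maximal % bound and IC50 were derived from scintillation counts.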

rat GPR40 = molecular target: T3, rat GPR40 (Rattus norvegicus, UniProt Q8K3T4); test: Rat GPR40 IP1 accumulation assay; format: cell-based
T3 construct: expressed in transfected cells; host or cells: CHO-K1 (methods)
Summary of the method: as §1

[3] = maximal % activity vs in-house partial agonist control
[4] = radioligand L-001533358, dose 0.318285 nM
[5] = radioligand L-001533358, dose 1.00578 nM
[6] = radioligand L-001533358, dose 3.17827 nM
[7] = radioligand L-001533358, dose 10.0433 nM
[8] = radioligand L-001533358, dose 31.7369 nM
[9] = radioligand L-001533358, dose 100.289 nM
[10] = radioligand L-001533358, dose 316.912 nM
[11] = radioligand L-001533358, dose 1001.44 nM
[12] = radioligand L-001533358, dose 3164.56 nM
[13] = radioligand L-001533358, dose 10000 nM

T1 sequence (O14842 whole entry): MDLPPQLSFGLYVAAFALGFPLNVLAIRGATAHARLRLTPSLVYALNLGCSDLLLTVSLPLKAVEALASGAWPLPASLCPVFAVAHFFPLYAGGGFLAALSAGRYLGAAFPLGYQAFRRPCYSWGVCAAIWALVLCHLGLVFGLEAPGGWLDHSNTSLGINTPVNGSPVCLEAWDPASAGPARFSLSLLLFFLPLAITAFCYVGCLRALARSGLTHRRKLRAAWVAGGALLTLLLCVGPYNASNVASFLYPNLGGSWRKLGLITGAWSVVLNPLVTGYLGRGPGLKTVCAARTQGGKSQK
T2 sequence (Q76JU9 whole entry): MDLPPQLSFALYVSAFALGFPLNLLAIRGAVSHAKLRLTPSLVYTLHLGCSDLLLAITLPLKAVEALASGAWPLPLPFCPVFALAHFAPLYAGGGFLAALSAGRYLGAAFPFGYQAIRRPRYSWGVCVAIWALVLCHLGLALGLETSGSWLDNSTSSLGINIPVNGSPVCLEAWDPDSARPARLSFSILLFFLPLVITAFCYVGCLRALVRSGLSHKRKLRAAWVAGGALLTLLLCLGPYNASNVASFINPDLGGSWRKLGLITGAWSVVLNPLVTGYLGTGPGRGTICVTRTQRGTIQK
T3 sequence (Q8K3T4 whole entry): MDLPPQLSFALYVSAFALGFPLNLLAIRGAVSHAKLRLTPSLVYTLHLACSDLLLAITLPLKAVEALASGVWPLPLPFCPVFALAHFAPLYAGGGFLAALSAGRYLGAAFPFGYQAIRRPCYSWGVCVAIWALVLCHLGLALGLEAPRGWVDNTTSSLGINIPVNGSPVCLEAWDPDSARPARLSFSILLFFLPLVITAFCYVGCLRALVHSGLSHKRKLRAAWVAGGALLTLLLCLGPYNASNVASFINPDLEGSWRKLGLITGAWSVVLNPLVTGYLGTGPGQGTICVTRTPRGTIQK

Human GPR40 Receptor Activation (%) (human GPR40 [1]; dose 2.00E-06 M): 100% | Human GPR40 Receptor Activation (%) (human GPR40 [1]; dose 2.00E-07 M): 90% | Human GPR40 Receptor Activation (%) (human GPR40 [1]; dose 2.00E-08 M): 81% | Human GPR40 Receptor Activation (%) (human GPR40 [1]; dose 2.00E-09 M): 31% | Human GPR40 Receptor Activation (%) (human GPR40 [1]; dose 2.00E-10 M): -1.34% | Human GPR40 Receptor Activation (%) (human GPR40 [1]; dose 6.00E-07 M): 95% | Human GPR40 Receptor Activation (%) (human GPR40 [1]; dose 6.00E-08 M): 98% | Human GPR40 Receptor Activation (%) (human GPR40 [1]; dose 6.00E-09 M): 48% | Human GPR40 Receptor Activation (%) (human GPR40 [1]; dose 6.00E-10 M): 16% | Human GPR40 Receptor Activation (%) (human GPR40 [1]; dose 6.00E-11 M): 3.69% | Efficacy (% Activation), Human (human GPR40 [1]; [3]): (102%) | Mouse GPR40 Receptor Activation (%) (mouse GPR40; dose 1.20E-10 M): -5.6% | Mouse GPR40 Receptor Activation (%) (mouse GPR40; dose 1.99E-06 M): 140% | Mouse GPR40 Receptor Activation (%) (mouse GPR40; dose 1.99E-07 M): 129% | Mouse GPR40 Receptor Activation (%) (mouse GPR40; dose 1.99E-08 M): 125% | Mouse GPR40 Receptor Activation (%) (mouse GPR40; dose 2.00E-09 M): 44% | Mouse GPR40 Receptor Activation (%) (mouse GPR40; dose 5.98E-07 M): 147% | Mouse GPR40 Receptor Activation (%) (mouse GPR40; dose 5.98E-08 M): 122% | Mouse GPR40 Receptor Activation (%) (mouse GPR40; dose 5.99E-09 M): 87% | Mouse GPR40 Receptor Activation (%) (mouse GPR40; dose 5.99E-10 M): 23% | EC50 (mouse GPR40; individual replicates (n), read-out: Mouse GPR40 Functional Assay EC50): 2.6 nM and 3.1 nM and 3.4 nM and 4.3 nM and 4.6 nM and 5.4 nM and 5.5 nM and 6.5 nM and 6.9 nM and 8.2 nM and 1.6 nM and 1.9 nM | Efficacy (% Activation), Mouse (mouse GPR40; [3]): (145%) | EC50 (mouse GPR40; mean ± SD, n = 2–20, IP accumulation, read-out: Potency [EC50, nM] ± SD, Mouse): 4.4 ± 2.1 nM | Binding Results, % in parentheses, [^3H]L-358 (human GPR40 [2]; WT human GPR40, maximal % (not defined)): (91%) | binding of [^3H]L358 (human GPR40 [2]; human GPR40 membranes, competition binding): displace | % Bound Normalized to 100 (human GPR40 [2]; [4]): 100.25% | %Bound (human GPR40 [2]; [4]): 75.22% | inhibition at 0.000318285 µM (human GPR40 [2]; [4]): 15.4% | % Bound Normalized to 100 (human GPR40 [2]; [5]): 73.95% | %Bound (human GPR40 [2]; [5]): 48.92% | inhibition at 0.00100578 µM (human GPR40 [2]; [5]): 31.9% | % Bound Normalized to 100 (human GPR40 [2]; [6]): 83.61% | %Bound (human GPR40 [2]; [6]): 58.58% | inhibition at 0.00317827 µM (human GPR40 [2]; [6]): 49.3% | % Bound Normalized to 100 (human GPR40 [2]; [7]): 73.41% | %Bound (human GPR40 [2]; [7]): 48.38% | inhibition at 0.0100433 µM (human GPR40 [2]; [7]): 73.5% | % Bound Normalized to 100 (human GPR40 [2]; [8]): 43.62% | %Bound (human GPR40 [2]; [8]): 18.59% | inhibition at 0.0317369 µM (human GPR40 [2]; [8]): 84.4% | % Bound Normalized to 100 (human GPR40 [2]; [9]): 17.05% | %Bound (human GPR40 [2]; [9]): -7.97% | inhibition at 0.100289 µM (human GPR40 [2]; [9]): 102% | % Bound Normalized to 100 (human GPR40 [2]; [10]): 19.20% | %Bound (human GPR40 [2]; [10]): -5.83% | inhibition at 0.316912 µM (human GPR40 [2]; [10]): 111% | % Bound Normalized to 100 (human GPR40 [2]; [11]): 13.56% | %Bound (human GPR40 [2]; [11]): -11.46% | inhibition at 1.00144 µM (human GPR40 [2]; [11]): 105% | % Bound Normalized to 100 (human GPR40 [2]; [12]): 20.27% | %Bound (human GPR40 [2]; [12]): -4.75% | inhibition at 3.16456 µM (human GPR40 [2]; [12]): 111% | % Bound Normalized to 100 (human GPR40 [2]; [13]): 28.06% | %Bound (human GPR40 [2]; [13]): 3.03% | inhibition at 10 µM (human GPR40 [2]; [13]): 109% | Rat GPR40 Receptor Activation (%) (rat GPR40; dose 1.20E-10 M): -1.85% | Rat GPR40 Receptor Activation (%) (rat GPR40; dose 1.99E-06 M): 186% | Rat GPR40 Receptor Activation (%) (rat GPR40; dose 1.99E-07 M): 172% | Rat GPR40 Receptor Activation (%) (rat GPR40; dose 1.99E-08 M): 148% | Rat GPR40 Receptor Activation (%) (rat GPR40; dose 2.00E-09 M): 65% | Rat GPR40 Receptor Activation (%) (rat GPR40; dose 5.98E-07 M): 173% | Rat GPR40 Receptor Activation (%) (rat GPR40; dose 5.98E-08 M): 144% | Rat GPR40 Receptor Activation (%) (rat GPR40; dose 5.99E-09 M): 117% | Rat GPR40 Receptor Activation (%) (rat GPR40; dose 5.99E-10 M): 23% | EC50 (rat GPR40; individual replicates (n), read-out: Rat GPR40 Functional Assay EC50): 5.5 nM and 6.1 nM and 8.7 nM and 9.9 nM and 11.6 nM and 12.4 nM and 13.4 nM and 3.2 nM and 2.7 nM and 4.1 nM | Efficacy (% Activation), Rat (rat GPR40; [3]): (158%) | EC50 (rat GPR40; mean ± SD, n = 2–20, IP accumulation, read-out: Potency [EC50, nM] ± SD, Rat): 7.8 ± 4 nM
SMILES: Cc1cc(OCCCS(C)(=O)=O)cc(C)c1-c1cccc(COc2ccc3c(c2)OC[C@H]3CC(=O)O)c1 [TAK-875, reference compound]
HUMAN GPR40 Functional Assay %Act (human GPR40 [1]; individual replicates (n)): 122% and 82% and 93% and 96% and 99% and 104% and 130% and 79% | Mouse GPR40 Functional Assay %Act (mouse GPR40; individual replicates (n)): 131% and 140% and 174% and 156% and 154% and 110% and 134% and 185% and 133% and 107% and 152% | HUMAN GPR40 Binding Data %Act (human GPR40 [2]; TAK875 sheet, individual replicates (n), tracer not given): 92% and 91% and 95% and 87% and 103% and 89% and 72% and 84% and 93% and 94% | Rat GPR40 Functional Assay %Act (rat GPR40; individual replicates (n)): 129% and 176% and 138% and 164% and 159% and 199% and 148% and 141% and 177% and 150%
